One data set concerns the target αvβ5 (Homo sapiens, UniProt P06756+P18084). Briefly: Affinity for αvβ5 (preclinical data, summary statement). The data set is classed as binding.
The target of a further data set is αvβ3 (Homo sapiens, UniProt P05106+P06756). Briefly: Affinity for αvβ3 (preclinical data, summary statement). It is filed as binding.
The next data set concerns other receptors. Nature of the data set: Affinity for other receptors (preclinical data, summary statement). It is filed as binding.
The test system of another data set is WM266 melanoma tumor. Further details: species or system mice. As to conditions: mouse, in vivo. As for the experimental part:
Nude, male and female athymic mice bearing the WM266 melanoma tumor were intravenously injected with ^68Ga-Compound (˜100-150/uCi 320-480 pmol for males, ˜100-150 uCi/127-191 pmol for females, corresponding to 3.7-5.55 MBq). Animals were sacrificed in groups of four at 30 min, 1 h, 2 h and 4 h post injection. Tumor and organs of interest were collected, weighed and measured for radioactivity with a gamma-counter. The intestines and stomach were not emptied of their contents. Data were calculated as a percentage of the injected dose per gram of tissue (% ID/g).

Data set [1] in a line: Preliminary tests of FF58 resistance to radiation stress. It is filed as physicochemical. As for the experimental part:
Additional tests were performed in order to evaluate the radiolysis also in more stressful conditions such as 40° C. storage temperature and rolling, decreasing antioxidant agent (sodium ascorbate and gentisic acid) amounts. The radiochemical purity (RCP) was monitored at release time and at expiration time by Radio-RP-HPLC.

Sequence of αvβ3 (P06756 31-889 limits assumed): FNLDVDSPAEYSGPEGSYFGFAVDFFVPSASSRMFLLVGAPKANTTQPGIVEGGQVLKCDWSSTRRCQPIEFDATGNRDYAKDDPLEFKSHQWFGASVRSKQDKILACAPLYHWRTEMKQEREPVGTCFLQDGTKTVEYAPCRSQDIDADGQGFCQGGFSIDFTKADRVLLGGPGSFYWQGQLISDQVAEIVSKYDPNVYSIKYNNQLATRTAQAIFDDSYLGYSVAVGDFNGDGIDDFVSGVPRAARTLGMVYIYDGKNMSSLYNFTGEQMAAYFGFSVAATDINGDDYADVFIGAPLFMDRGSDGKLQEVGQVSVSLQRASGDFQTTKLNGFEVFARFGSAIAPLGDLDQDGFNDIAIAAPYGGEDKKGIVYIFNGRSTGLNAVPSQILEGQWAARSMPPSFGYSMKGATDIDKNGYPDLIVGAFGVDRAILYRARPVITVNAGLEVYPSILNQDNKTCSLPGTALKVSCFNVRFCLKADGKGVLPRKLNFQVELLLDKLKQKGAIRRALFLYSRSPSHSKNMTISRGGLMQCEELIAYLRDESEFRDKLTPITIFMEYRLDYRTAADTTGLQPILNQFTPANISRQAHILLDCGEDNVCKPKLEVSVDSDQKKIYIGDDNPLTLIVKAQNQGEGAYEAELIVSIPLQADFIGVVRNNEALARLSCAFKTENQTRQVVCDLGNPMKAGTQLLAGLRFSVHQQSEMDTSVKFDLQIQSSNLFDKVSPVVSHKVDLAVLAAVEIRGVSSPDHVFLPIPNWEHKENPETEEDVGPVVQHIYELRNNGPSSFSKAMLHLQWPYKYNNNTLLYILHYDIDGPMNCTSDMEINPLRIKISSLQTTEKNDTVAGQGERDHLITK
Sequence of αvβ3 (P06756 891-1048 partner limits assumed): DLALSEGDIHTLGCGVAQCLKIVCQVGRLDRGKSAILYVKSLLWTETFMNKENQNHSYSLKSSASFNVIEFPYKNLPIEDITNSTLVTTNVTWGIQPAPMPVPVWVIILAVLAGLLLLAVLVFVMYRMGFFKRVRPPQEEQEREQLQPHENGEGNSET
Sequence of αvβ3 (P05106 27-788): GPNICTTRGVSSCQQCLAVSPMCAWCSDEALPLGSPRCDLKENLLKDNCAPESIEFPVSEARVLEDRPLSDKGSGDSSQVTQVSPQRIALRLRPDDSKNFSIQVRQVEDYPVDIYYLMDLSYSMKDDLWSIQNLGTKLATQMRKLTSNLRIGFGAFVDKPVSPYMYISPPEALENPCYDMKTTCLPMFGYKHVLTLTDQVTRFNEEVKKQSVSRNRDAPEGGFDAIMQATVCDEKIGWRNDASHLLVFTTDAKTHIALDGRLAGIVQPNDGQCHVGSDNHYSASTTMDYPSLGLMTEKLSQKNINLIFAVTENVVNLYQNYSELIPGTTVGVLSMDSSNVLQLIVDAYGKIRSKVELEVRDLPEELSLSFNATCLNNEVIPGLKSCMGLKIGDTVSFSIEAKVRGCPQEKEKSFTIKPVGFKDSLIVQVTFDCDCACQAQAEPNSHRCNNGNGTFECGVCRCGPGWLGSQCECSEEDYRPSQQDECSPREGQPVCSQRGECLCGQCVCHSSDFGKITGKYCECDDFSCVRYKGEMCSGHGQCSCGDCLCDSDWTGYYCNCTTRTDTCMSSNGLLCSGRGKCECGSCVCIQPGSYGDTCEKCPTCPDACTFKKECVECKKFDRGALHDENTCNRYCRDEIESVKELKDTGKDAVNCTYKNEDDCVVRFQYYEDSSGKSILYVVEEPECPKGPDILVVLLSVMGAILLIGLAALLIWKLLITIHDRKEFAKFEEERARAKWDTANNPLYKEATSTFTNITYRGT
Sequence of αvβ5 (P06756 31-889 limits assumed): as the sequence (P06756 31-889 limits assumed) above
Sequence of αvβ5 (P06756 891-1048 partner limits assumed): as the sequence (P06756 891-1048 partner limits assumed) above
Sequence of αvβ5 (P18084 24-799): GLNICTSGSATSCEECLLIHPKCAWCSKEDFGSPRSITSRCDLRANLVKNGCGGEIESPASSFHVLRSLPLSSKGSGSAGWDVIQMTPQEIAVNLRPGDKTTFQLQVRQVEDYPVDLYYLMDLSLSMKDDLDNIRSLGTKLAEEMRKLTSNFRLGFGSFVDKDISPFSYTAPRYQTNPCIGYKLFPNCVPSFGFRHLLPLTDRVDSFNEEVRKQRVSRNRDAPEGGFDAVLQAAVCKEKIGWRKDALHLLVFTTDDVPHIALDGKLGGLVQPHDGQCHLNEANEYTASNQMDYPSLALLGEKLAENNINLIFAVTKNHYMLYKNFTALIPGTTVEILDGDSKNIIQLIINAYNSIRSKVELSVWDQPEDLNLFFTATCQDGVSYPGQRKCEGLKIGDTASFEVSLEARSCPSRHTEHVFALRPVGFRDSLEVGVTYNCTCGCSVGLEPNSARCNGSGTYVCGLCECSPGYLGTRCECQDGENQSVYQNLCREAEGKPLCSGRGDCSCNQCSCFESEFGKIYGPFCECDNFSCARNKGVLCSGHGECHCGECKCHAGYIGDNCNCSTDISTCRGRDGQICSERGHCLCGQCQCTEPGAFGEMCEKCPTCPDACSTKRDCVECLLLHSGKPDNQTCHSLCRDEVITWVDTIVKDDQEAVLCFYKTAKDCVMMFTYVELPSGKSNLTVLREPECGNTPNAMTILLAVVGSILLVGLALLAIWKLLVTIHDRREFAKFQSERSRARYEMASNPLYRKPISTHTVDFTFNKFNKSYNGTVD

For the compound `Cc1cc(OCCCC(=O)NCCNC(=O)[C@H](CS(=O)(=O)O)NC(=O)CN2CCN(CC(=O)O)CCN(CC(=O)O)CCN(CC(=O)O)CC2)cc(C)c1S(=O)(=O)NC(CNC(=O)CCCCc1ccc2c(n1)NCCC2)C(=O)O` (single isomer, unassigned) [^68Ga-Compound, metal not drawn], the “affinity for αvβ5” value on αvβ5 is “high affinity”. Further, the “affinity for αvβ3” value at αvβ3 was “high affinity”. Further, in the data set with other receptors, the “affinity for other receptors” value is “absence of affinity”. Besides, in the data set on WM266 melanoma tumor, the “background uptake in normal organs” value is recorded as “cleared moderately by 4 h”; the “excretion (uptake in the kidneys and intestine)” value was “renal and partial hepatic excretion”.
`Cc1cc(OCCCC(=O)NCCNC(=O)[C@H](CS(=O)(=O)O)NC(=O)CN2CCN(CC(=O)O)CCN(CC(=O)O)CCN(CC(=O)O)CC2)cc(C)c1S(=O)(=O)NC(CNC(=O)CCCCc1ccc2c(n1)NCCC2)C(=O)O` (stereo partly drawn) [FF58]: the “resistance to the radiation stress” value in data set [1] is on record as “good resistance to the radiation stress”.

The record behind these values is US20240050597A1, “RADIOLABELLED ALPHA-V BETA-3 AND/OR ALPHA-V BETA-5 INTEGRINS ANTAGONIST FOR USE AS THERAGNOSTIC AGENT” (ADVANCED ACCELERATOR APPLICATIONS INTERNATIONAL SA, priority 2020, published 2024).
